Laboratory results: ChEMBL document CHEMBL2203190, “Sesquiterpenoids from Atractylodes macrocephala act as farnesoid X receptor and progesterone receptor modulators” (Bioorg Med Chem Lett, 2012)
Activity calls are given as the source filed them. No cut-off for these calls is given here.

Tests used:
[1] = molecular target: T1, Bile acid receptor (Homo sapiens) (UniProt Q96RI1); experiment: Antagonist activity at human FXR expressed in human HepG2 cells assessed as inhibition of CDCA-induced transactivation of SHP gene at 50 uM by measuring relative luciferase activity by transient transfection reporter assay relative to control; type: functional, cell-based
T1 sequence (whole entry): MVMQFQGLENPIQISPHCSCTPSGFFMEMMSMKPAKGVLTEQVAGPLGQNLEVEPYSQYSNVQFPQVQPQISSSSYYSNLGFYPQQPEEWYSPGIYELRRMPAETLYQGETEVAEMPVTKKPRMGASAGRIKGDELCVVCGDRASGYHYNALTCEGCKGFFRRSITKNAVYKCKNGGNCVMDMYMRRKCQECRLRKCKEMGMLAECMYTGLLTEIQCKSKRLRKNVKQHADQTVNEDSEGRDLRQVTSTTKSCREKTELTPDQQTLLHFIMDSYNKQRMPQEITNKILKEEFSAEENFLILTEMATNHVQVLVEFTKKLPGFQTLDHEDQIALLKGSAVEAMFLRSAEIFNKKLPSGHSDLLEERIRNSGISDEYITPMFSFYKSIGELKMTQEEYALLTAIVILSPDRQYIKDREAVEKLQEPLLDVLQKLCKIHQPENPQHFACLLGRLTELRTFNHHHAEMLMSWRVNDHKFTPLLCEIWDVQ

[2] = molecular target: T1, Bile acid receptor (Homo sapiens); experiment: Agonist activity at human FXR expressed in human HepG2 cells assessed as transactivation of SHP gene at 400 uM by measuring relative luciferase activity by transient transfection reporter assay; type: functional, cell-based
[3] = molecular target: T1, Bile acid receptor (Homo sapiens); experiment: Antagonist activity at human FXR expressed in human HepG2 cells assessed as upregulation of CYP7A1 gene transactivation at 10 uM by measuring relative luciferase activity by transient transfection reporter assay relative to control; type: functional, cell-based
[4] = molecular target: T1, Bile acid receptor (Homo sapiens); experiment: Antagonist activity at human FXR expressed in human HepG2 cells assessed as inhibition of CDCA-induced transactivation of SHP gene at 100 uM by measuring relative luciferase activity by transient transfection reporter assay relative to control; type: functional, cell-based
[5] = molecular target: T2, Progesterone receptor (Homo sapiens) (UniProt P06401); experiment: Agonist activity at human PR expressed in human HepG2 cells assessed as MMTV gene promoter transactivation at 100 uM by measuring relative luciferase activity by transient transfection reporter assay relative to control; type: functional, cell-based
T2 sequence (whole entry): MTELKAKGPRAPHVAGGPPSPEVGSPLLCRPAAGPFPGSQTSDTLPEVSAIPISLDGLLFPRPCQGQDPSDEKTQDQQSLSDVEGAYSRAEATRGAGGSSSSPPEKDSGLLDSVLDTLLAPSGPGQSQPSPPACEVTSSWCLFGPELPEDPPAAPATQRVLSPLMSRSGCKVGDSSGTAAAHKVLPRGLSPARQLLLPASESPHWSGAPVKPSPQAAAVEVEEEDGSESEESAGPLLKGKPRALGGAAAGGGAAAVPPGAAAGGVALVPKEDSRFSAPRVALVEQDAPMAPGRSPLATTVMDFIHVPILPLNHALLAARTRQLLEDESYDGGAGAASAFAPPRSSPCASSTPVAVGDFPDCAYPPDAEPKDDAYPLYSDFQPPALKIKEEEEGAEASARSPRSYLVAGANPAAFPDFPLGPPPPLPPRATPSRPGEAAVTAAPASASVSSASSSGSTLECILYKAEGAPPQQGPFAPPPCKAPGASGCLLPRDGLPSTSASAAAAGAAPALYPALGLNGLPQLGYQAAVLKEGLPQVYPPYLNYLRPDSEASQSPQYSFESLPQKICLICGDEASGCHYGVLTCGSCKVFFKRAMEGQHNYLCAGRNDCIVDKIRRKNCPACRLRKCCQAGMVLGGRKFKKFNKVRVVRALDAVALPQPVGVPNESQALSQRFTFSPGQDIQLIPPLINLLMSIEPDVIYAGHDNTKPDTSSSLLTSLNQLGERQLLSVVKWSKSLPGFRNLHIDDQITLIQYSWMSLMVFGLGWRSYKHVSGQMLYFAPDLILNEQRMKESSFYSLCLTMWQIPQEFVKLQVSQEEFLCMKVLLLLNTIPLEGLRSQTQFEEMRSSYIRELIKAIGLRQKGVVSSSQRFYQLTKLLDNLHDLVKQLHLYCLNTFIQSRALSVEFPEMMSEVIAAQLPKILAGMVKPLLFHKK

[6] = molecular target: T2, Progesterone receptor (Homo sapiens); experiment: Agonist activity at human PR expressed in human HepG2 cells assessed as MMTV gene promoter transactivation at 10 uM by measuring relative luciferase activity by transient transfection reporter assay relative to control; type: functional, cell-based
[7] = molecular target: T1, Bile acid receptor (Homo sapiens); experiment: Antagonist activity at human FXR expressed in human HepG2 cells assessed as inhibition of CDCA-induced transactivation of SHP gene at 10 uM by measuring relative luciferase activity by transient transfection reporter assay relative to control; type: functional, cell-based
[8] = molecular target: T1, Bile acid receptor (Homo sapiens); experiment: Antagonist activity at human FXR expressed in human HepG2 cells assessed as inhibition of CDCA-induced transactivation of SHP gene by measuring relative luciferase activity by transient transfection reporter assay relative to control; type: functional, cell-based
[9] = molecular target: Cellular tumor antigen p53 (Homo sapiens) (UniProt P04637); experiment: Transactivation of p53 in human HepG2 cells expressing MDM2 promoter by transient transfection reporter assay; type: cell-based
Chain of Cellular tumor antigen p53 (Homo sapiens) (P04637 whole entry, looked up): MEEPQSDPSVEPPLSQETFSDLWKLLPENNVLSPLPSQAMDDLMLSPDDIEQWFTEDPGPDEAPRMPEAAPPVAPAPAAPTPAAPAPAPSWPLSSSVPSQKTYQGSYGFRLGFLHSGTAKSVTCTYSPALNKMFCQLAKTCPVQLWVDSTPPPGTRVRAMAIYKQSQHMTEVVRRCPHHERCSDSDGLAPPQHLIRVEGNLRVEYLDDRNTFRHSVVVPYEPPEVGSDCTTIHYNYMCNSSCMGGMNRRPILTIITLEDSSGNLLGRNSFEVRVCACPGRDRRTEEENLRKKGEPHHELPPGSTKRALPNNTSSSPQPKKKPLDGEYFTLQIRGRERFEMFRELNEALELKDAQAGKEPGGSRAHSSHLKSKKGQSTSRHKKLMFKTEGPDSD

HepG2 = experiment: Cytotoxicity against human HepG2 cells; type: cell-based
[10] = molecular target: T1, Bile acid receptor (Homo sapiens); experiment: Antagonist activity at human FXR expressed in human HepG2 cells assessed as upregulation of CYP7A1 gene transactivation at 100 uM by measuring relative luciferase activity by transient transfection reporter assay relative to control; type: functional, cell-based

SMILES | inhibition [1] | Activity [2] | fold change (FC) [3] | RLU [4] | RLU [5] | RLU [6] | RLU [7] | inhibition [8] | Activity [9] | Activity (HepG2) | fold change (FC) [10] | Activity [5]
C=C1CCC[C@]2(C)C[C@]3(O)OC(=O)C(C)=C3C[C@@H]12 | 50% | inactive | 1.5 | 0.85 | 3.39 | 1.57 | 1.7 | Dose-dependent effect | – | – | – | –
C=C1CCC[C@]2(C)C=C3OC(=O)C(C)=C3C[C@@H]12 [ATRACTYLENOLIDE I] | – | – | – | – | – | – | – | – | Active | Toxic | – | –
C=C1CCC[C@]2(C)C[C@@H]3OC(=O)C(C)=C3C[C@@H]12 | 50% | inactive | 1.5 | 0.9 | – | – | 1.5 | Dose-dependent effect | – | – | 2 | inactive
CC(=O)[C@H]1CC[C@H]2[C@@H]3CCC4=CC(=O)CC[C@]4(C)[C@H]3CC[C@]12C | – | – | – | – | – | 2.38 | – | – | – | – | – | –
